Data reported in ChEMBL document CHEMBL1914445 (Eur J Med Chem, 2011).

What was measured:
Acetylcholinesterase [1] = target: T1, Acetylcholinesterase (Homo sapiens, UniProt P22303); assay: Inhibition of human recombinant AChE using acetylthiocholine as substrate by Ellman's assay
Acetylcholinesterase [2] = target: T2, Acetylcholinesterase (Electrophorus electricus, UniProt O42275)
Description: Inhibition of Electrophorus electricus AChE using acetylthiocholine iodide as substrate preincubated for 10 mins before substrate addition by Ellman's method

Cholinesterase [3] = target: T3, Cholinesterase (Equus caballus, UniProt P81908); assay: Inhibition of equine serum BuChE using butyrylthiocholine iodide as substrate preincubated for 10 mins before substrate addition by Ellman's method
Cholinesterase [4] = target: T4, Cholinesterase (Homo sapiens, UniProt P06276); assay: Inhibition of human serum BuChE using butyrylthiocholine as substrate by Ellman's assay
Cholinesterase [5] = target: T3, Cholinesterase
Description: Inhibition of equine serum BuChE using butyrylthiocholine iodide as substrate preincubated for 10 mins before substrate addition by Ellman's method in presence of bovine serum albumin

Acetylcholinesterase [6] = target: T2, Acetylcholinesterase; remark: listed apart in the source
Description: Inhibition of Electrophorus electricus AChE using acetylthiocholine iodide as substrate preincubated for 10 mins before substrate addition by Ellman's method in presence of bovine serum albumin

Cholinesterase [7] = target: T4, Cholinesterase; assay: Inhibition of human serum BuChE using butyrylthiocholine as substrate by Ellman's assay in presence of bovine serum albumin
Acetylcholinesterase [8] = target: T1, Acetylcholinesterase; assay: Inhibition of human recombinant AChE using acetylthiocholine as substrate by Ellman's assay in presence of bovine serum albumin
Homo sapiens = organism: Homo sapiens; assay: Selectivity ratio of IC50 for human […]
SH-SY5Y [9] = assay: Neuroprotective activity against amyloid beta(25-32)-induced toxicity in human SH-SY5Y cells assessed as reduction in cell viability at 0.3 uM preincubated for 24 hrs measured after 24 hrs by MTT assay; assay type: functional
SH-SY5Y [10] = assay: Neuroprotective activity against amyloid beta(25-32)-induced toxicity in human SH-SY5Y cells assessed as reduction in cell viability at 3 uM preincubated for 24 hrs measured after 24 hrs by MTT assay; assay type: functional
Acetylcholinesterase [11] = target: T2, Acetylcholinesterase; assay: Mixed-type inhibition of Electrophorus electricus AChE assessed as hydrolysis of acetylthiocholine by Lineweaver-Burk plot analysis
SH-SY5Y [12] = assay: Neuroprotective activity against amyloid beta(25-32)-induced toxicity in human SH-SY5Y cells assessed as reduction in cell viability at 1 uM preincubated for 24 hrs measured after 24 hrs by MTT assay; assay type: functional

T1 sequence (P22303 whole entry): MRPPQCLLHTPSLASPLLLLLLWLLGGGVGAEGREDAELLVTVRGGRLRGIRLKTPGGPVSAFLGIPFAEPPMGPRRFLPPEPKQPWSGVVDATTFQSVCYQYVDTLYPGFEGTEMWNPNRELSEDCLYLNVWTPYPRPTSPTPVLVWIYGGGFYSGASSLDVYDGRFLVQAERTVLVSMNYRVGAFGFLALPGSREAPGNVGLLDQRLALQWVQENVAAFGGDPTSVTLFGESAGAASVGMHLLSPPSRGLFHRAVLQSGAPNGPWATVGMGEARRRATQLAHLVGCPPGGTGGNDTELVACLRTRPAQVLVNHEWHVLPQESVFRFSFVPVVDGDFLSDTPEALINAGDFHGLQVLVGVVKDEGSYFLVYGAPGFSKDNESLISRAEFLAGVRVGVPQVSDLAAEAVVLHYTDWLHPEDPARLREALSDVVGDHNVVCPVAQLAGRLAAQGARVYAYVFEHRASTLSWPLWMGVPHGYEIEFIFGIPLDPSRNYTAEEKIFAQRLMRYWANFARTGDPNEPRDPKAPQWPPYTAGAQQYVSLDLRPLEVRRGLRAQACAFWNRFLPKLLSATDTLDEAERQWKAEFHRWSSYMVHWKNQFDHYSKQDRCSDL
T4 sequence (P06276 whole entry): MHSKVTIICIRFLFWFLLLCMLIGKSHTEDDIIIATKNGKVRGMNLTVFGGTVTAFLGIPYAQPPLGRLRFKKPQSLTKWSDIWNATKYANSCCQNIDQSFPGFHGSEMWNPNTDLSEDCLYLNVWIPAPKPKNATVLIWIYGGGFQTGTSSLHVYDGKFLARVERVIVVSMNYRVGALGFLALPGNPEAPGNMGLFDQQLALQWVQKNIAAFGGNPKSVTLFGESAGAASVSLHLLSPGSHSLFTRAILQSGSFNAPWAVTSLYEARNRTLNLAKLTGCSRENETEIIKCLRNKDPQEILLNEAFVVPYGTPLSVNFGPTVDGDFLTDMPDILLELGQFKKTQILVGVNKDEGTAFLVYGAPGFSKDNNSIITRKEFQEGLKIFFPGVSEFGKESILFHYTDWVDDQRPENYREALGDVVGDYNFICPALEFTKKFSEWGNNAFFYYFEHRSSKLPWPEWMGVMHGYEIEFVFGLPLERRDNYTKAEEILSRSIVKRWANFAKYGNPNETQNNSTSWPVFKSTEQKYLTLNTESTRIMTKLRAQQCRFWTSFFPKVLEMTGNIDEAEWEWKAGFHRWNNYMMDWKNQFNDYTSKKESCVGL
T3 sequence (P81908 whole entry): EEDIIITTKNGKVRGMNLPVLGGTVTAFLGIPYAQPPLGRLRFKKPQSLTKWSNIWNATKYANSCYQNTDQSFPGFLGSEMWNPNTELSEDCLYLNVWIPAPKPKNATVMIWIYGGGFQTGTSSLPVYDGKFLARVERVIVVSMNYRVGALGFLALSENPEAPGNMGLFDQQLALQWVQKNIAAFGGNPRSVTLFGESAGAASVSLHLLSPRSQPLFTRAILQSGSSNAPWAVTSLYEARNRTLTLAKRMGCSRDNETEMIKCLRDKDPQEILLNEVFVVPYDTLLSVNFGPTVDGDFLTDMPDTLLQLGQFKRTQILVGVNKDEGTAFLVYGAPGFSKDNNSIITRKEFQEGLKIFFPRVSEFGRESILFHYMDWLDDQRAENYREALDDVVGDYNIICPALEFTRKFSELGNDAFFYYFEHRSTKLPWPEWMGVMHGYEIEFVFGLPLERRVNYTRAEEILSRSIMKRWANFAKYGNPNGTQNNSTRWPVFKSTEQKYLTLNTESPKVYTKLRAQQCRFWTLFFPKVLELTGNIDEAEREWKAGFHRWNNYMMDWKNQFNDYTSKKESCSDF
T2 sequence (O42275 whole entry): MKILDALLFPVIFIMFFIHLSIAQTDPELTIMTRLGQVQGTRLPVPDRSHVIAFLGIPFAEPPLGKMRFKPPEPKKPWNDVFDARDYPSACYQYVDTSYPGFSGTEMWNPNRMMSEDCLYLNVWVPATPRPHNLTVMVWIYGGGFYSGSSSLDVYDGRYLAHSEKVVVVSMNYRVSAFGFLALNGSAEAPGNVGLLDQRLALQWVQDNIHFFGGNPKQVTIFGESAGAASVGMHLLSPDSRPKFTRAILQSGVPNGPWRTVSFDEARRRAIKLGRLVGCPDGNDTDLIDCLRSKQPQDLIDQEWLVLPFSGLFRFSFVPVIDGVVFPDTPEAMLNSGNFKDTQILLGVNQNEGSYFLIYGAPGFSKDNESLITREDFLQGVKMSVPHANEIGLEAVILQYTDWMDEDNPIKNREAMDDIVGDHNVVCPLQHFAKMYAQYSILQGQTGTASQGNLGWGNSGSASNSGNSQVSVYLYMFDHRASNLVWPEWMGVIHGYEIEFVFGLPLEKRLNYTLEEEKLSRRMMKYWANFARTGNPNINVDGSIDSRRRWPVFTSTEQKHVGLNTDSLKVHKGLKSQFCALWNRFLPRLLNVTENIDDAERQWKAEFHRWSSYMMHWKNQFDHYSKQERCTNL

Row | Structure (SMILES) | IC50 (Acetylcholinesterase [1]) [µM] | IC50 (Acetylcholinesterase [2]) [µM] | IC50 (Cholinesterase [3]) [µM] | IC50 (Cholinesterase [4]) [µM] | IC50 (Cholinesterase [5]) [µM] | IC50 (Acetylcholinesterase [6]) [µM] | also measured
1 | Nc1c2c(nc3oc(-c4ccc(Cl)cc4)cc13)CCCC2 | > 100 | > 100 | 23 | 26.1 | – | – | –
2 | Cc1ccc(-c2cc3c(N)c4c(nc3o2)CCCC4)cc1 | > 100 | > 100 | 2.9 | 119 | – | – | –
3 | Nc1c2c(nc3c1cc(-c1ccc(Cl)cc1)n3-c1ccccc1)CCCC2 | – | – | – | – | 15 | 24 | –
4 | N#Cc1c(-c2ccc(Cl)cc2)oc2nc3c(c(N)c12)CCCC3 | – | – | – | – | 32.4 | > 100 | IC50 (Cholinesterase [7]): > 100 µM; IC50 (Acetylcholinesterase [8]): > 100 µM
5 | Nc1c2c(nc3c1cc(-c1ccccc1)n3-c1ccccc1)CCCC2 | 45.5 | 0.61 | 0.074 | 8.57 | – | – | Ratio IC50 (Homo sapiens): 5; Activity (SH-SY5Y [9]): 11.4%; Activity (SH-SY5Y [10]): 23.7%; Ki (Acetylcholinesterase [11]): 0.621 µM; Activity (SH-SY5Y [12]): 19%
6 | Nc1c2c(nc3oc(-c4ccccc4)cc13)CCCC2 | > 100 | > 100 | 3.6 | 3.78 | – | – | –
7 | Nc1c2c(nc3oc(-c4ccc(Cl)cc4)cc13)CCCCC2 | – | – | – | – | 43 | > 100 | –
8 | Cc1ccc(-c2cc3c(N)c4c(nc3o2)CCCCC4)cc1 | – | – | – | – | 13 | > 30 | –
9 | Nc1c2c(nc3oc(-c4ccccc4)cc13)CCCCC2 | – | > 100 | 6 | – | – | – | –
10 | Nc1c2c(nc3c1cc(-c1ccccc1)n3-c1ccccc1)CCCCC2 | – | – | – | – | 1.1 | > 30 | –
